# Source: US20170362228A1, “TETRAHYDRO-PYRIDO[3,4-b]INDOLE ESTROGEN RECEPTOR MODULATORS AND USES THEREOF” (Genentech, Inc., priority 2016, published 2017)
# Where two headings read alike, the source gives them in different places.
# Experiments:
# [1] = biological target: T1, estrogen receptor alpha (ESR1) (Homo sapiens, UniProt P03372); test: Breast Cancer Cell ERa High Content Fluorescence Imaging Degradation Assay (Example 901); type: cell-based; details: MCF7 breast cancer cells, 4 hours, plateau of the maximal effect
# T1 construct: endogenous in cells; host or cells: MCF7 breast cancer cells
# T1 sequence (P03372 1-595): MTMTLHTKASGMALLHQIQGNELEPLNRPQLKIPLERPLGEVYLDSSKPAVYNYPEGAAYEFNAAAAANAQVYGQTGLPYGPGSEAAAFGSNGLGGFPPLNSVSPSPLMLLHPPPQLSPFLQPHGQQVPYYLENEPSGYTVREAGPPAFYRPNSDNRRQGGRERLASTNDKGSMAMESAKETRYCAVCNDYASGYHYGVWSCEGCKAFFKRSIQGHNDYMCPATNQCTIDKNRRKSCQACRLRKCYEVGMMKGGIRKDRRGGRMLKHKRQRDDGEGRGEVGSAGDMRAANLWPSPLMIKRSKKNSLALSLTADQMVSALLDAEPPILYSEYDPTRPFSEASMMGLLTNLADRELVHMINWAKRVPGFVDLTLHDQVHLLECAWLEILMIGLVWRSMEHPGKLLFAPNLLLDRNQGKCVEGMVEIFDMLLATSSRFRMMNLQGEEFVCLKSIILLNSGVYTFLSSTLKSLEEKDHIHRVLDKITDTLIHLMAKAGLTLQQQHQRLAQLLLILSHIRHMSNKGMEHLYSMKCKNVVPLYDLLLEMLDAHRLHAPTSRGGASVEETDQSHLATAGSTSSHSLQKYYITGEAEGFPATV
# Summary of the method: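 MCF7 cells in phenol red-free RPMI with 10% charcoal-stripped FBS, exposed to compound at 0.05–835 nM (10-point, 1.8×, duplicate; 0.84% DMSO) for 4 h at 37 °C. Fixed cells immunostained for ESR1 (F10 mAb, Alexa 488) with Hoechst nuclear mask; nuclear ESR1 intensity imaged per cell. DMSO and 5 nM fulvestrant set 0%/100%; EC50 and Sinf by robust fit.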
# MCF7 cells = test: In vitro cell proliferation assays (Examples 902 and 903), MCF7; type: cell-based; details: read-out: ER-alpha MCF7 HCS (EC50)
# [2] = Table 1a, DMSO and Fulvestrant define 0% and 100% changes in ESR1
"ER-alpha MCF7 HCS (S inf) [1, 2]",EC50 (MCF7 cells; Table 1a),"EC50 (MCF7 cells; Homo sapiens, MCF7, Table 1a)",ER-alpha MCF7 HCS (S inf) ([1]; Table 1b),"EC50 (MCF7 cells; Homo sapiens, MCF7, Table 1b)",SMILES
−96.56%,0.022 nM,,,,"C[C@@H]1Cc2c([nH]c3ccc(F)cc23)[C@@H](c2c(F)cc(C(O)C3CN(CCCF)C3)cc2F)N1CC(C)(F)CO (stereo partly drawn) [Compound 118, 3-((1R,3R)-1-(2,6-difluoro-4-((1-(3-fluoropropyl)azetidin-3-yl)(hydroxy)methyl)phenyl)-6-fluoro-3-methyl-1,3,4,9-tetrahydro-2H-pyrido[3,4-b]indol-2-yl)-2-fluoro-2-methylpropan-1-ol]"
−98.93%,,0.085 nM,,,"C[C@@H]1Cc2c([nH]c3ccccc23)[C@@H](c2c(F)cc([C@H](O)C3CN(CCCF)C3)cc2F)N1CC(F)(F)F [Compound 119, (R)-(3,5-difluoro-4-((1R,3R)-3-methyl-2-(2,2,2-trifluoroethyl)-2,3,4,9-tetrahydro-1H-pyrido[3,4-b]indol-1-yl)phenyl)(1-(3-fluoropropyl)azetidin-3-yl)methanol]"
−99.17%,,0.037 nM,,,"C[C@@H]1Cc2c([nH]c3ccccc23)[C@@H](c2c(F)cc([C@@H](O)C3CN(CCCF)C3)cc2F)N1CC(F)(F)F [Compound 120, (S)-(3,5-difluoro-4-((1R,3R)-3-methyl-2-(2,2,2-trifluoroethyl)-2,3,4,9-tetrahydro-1H-pyrido[3,4-b]indol-1-yl)phenyl)(1-(3-fluoropropyl)azetidin-3-yl)methanol]"
−98.38%,,0.041 nM,,,C[C@@H]1Cc2c([nH]c3ccccc23)[C@@H](c2ccc([C@H](F)C3CN(CCCF)C3)cc2)N1CC(F)(F)CO [Compound 123]
−96.62%,,0.022 nM,,,"C[C@@H]1Cc2c([nH]c3ccccc23)[C@@H](c2ccc([C@@H](F)C3CN(CCCF)C3)cc2)N1CC(F)(F)CO [Compound 124, 2,2-difluoro-3-((1R,3R)-1-(4-((S)-fluoro(1-(3-fluoropropyl)azetidin-3-yl)methyl)phenyl)-3-methyl-1,3,4,9-tetrahydro-2H-pyrido[3,4-b]indol-2-yl)propan-1-ol]"
−98.52%,,0.019 nM,,,"C[C@@H]1Cc2c([nH]c3ccccc23)[C@@H](c2ccc([C@H](F)C3CN(CCCF)C3)cc2F)N1CC(F)(F)CO [Compound 125, 2,2-difluoro-3-((1R,3R)-1-(2-fluoro-4-((R)-fluoro(1-(3-fluoropropyl)azetidin-3-yl)methyl)phenyl)-3-methyl-1,3,4,9-tetrahydro-2H-pyrido[3,4-b]indol-2-yl)propan-1-ol]"
−95.71%,,0.021 nM,,,"C[C@@H]1Cc2c([nH]c3ccccc23)[C@@H](c2ccc([C@@H](F)C3CN(CCCF)C3)cc2F)N1CC(F)(F)CO [Compound 126, 2,2-difluoro-3-((1R,3R)-1-(2-fluoro-4-((S)-fluoro(1-(3-fluoropropyl)azetidin-3-yl)methyl)phenyl)-3-methyl-1,3,4,9-tetrahydro-2H-pyrido[3,4-b]indol-2-yl)propan-1-ol]"
−97.29%,,0.071 nM,,,"C[C@@H]1Cc2c([nH]c3ccccc23)[C@@H](c2ccc([C@H](O)C3CN(CCCF)C3)cc2)N1CC(F)(F)CO [Compound 127, 2,2-difluoro-3-((1R,3R)-1-(4-((R)-(1-(3-fluoropropyl)azetidin-3-yl)(hydroxy)methyl)phenyl)-3-methyl-1,3,4,9-tetrahydro-2H-pyrido[3,4-b]indol-2-yl)propan-1-ol]"
−97.31%,,0.088 nM,,,"C[C@@H]1Cc2c([nH]c3ccccc23)[C@@H](c2ccc([C@@H](O)C3CN(CCCF)C3)cc2)N1CC(F)(F)CO [Compound 128, 2,2-difluoro-3-((1R,3R)-1-(4-((S)-(1-(3-fluoropropyl)azetidin-3-yl)(hydroxy)methyl)phenyl)-3-methyl-1,3,4,9-tetrahydro-2H-pyrido[3,4-b]indol-2-yl)propan-1-ol]"
−98.76%,,0.034 nM,,,"C[C@@H]1Cc2c([nH]c3ccccc23)[C@@H](c2ccc([C@H](O)C3CN(CCCF)C3)cc2F)N1CC(F)(F)CO [Compound 129, 2,2-difluoro-3-((1R,3R)-1-(2-fluoro-4-((R)-(1-(3-fluoropropyl)azetidin-3-yl)(hydroxy)methyl)phenyl)-3-methyl-1,3,4,9-tetrahydro-2H-pyrido[3,4-b]indol-2-yl)propan-1-ol]"
−96.45%,,0.037 nM,,,"C[C@@H]1Cc2c([nH]c3ccccc23)[C@@H](c2ccc([C@@H](O)C3CN(CCCF)C3)cc2F)N1CC(F)(F)CO [Compound 130, 2,2-difluoro-3-((1R,3R)-1-(2-fluoro-4-((S)-(1-(3-fluoropropyl)azetidin-3-yl)(hydroxy)methyl)phenyl)-3-methyl-1,3,4,9-tetrahydro-2H-pyrido[3,4-b]indol-2-yl)propan-1-ol]"
−100%,,1.3 nM,,,"C[C@@H]1Cc2c([nH]c3cc(F)ccc23)[C@@H](c2c(F)cc([C@@H](O)C3CN(CCCF)C3)cc2F)N1CC(F)(F)CO [Compound 141, 3-((1R,3R)-1-(2,6-difluoro-4-((S)-(1-(3-fluoropropyl)azetidin-3-yl)(hydroxy)methyl)phenyl)-7-fluoro-3-methyl-1,3,4,9-tetrahydro-2H-pyrido[3,4-b]indol-2-yl)-2,2-difluoropropan-1-ol]"
−101%,,0.035 nM,,,"C[C@@H]1Cc2c([nH]c3cccc(F)c23)[C@@H](c2c(F)cc([C@H](O)C3CN(CCCF)C3)cc2F)N1CC(F)(F)CO [Compound 143, 3-((1R,3R)-1-(2,6-difluoro-4-((R)-(1-(3-fluoropropyl)azetidin-3-yl)(hydroxy)methyl)phenyl)-5-fluoro-3-methyl-3,4-dihydro-1H-pyrido[3,4-b]indol-2(9H)-yl)-2,2-difluoropropan-1-ol]"
−101%,,0.028 nM,,,"C[C@@H]1Cc2c([nH]c3cccc(F)c23)[C@@H](c2c(F)cc([C@@H](O)C3CN(CCCF)C3)cc2F)N1CC(F)(F)CO [Compound 144, 3-((1R,3R)-1-(2,6-difluoro-4-((S)-(1-(3-fluoropropyl)azetidin-3-yl)(hydroxy)methyl)phenyl)-5-fluoro-3-methyl-3,4-dihydro-1H-pyrido[3,4-b]indol-2(9H)-yl)-2,2-difluoropropan-1-ol]"
−103%,,0.072 nM,,,"C[C@@H]1Cc2c([nH]c3ccccc23)[C@@H](c2c(F)cc(C(N)C3CN(CCCF)C3)cc2F)N1CC(F)(F)CO (stereo partly drawn) [Compound 145, 3-((1R,3R)-1-(4-(amino(1-(3-fluoropropyl)azetidin-3-yl)methyl)-2,6-difluorophenyl)-3-methyl-3,4-dihydro-1H-pyrido[3,4-b]indol-2(9H)-yl)-2,2-difluoropropan-1-ol]"
−96.1%,,0.26 nM,,,"C[C@@H]1Cc2c([nH]c3ccccc23)[C@@H](c2c(F)cc(C(F)(F)C3CN(CCCF)C3)cc2F)N1CC(C)(C)F [Compound 146, (1R,3R)-1-(4-(Difluoro(1-(3-fluoropropyl)azetidin-3-yl)methyl)-2,6-difluorophenyl)-2-(2-fluoro-2-methylpropyl)-3-methyl-2,3,4,9-tetrahydro-1H-pyrido[3,4-b]indole]"
−94%,,0.054 nM,,,"C[C@@H]1Cc2c([nH]c3ccccc23)[C@@H](c2c(F)cc(C(C#N)C3CN(CCCF)C3)cc2F)N1CC(F)(F)CO (stereo partly drawn) [Compound 150, 2-(4-((1R,3R)-2-(2,2-difluoro-3-hydroxypropyl)-3-methyl-2,3,4,9-tetrahydro-1H-pyrido[3,4-b]indol-1-yl)-3,5-difluorophenyl)-2-(1-(3-fluoropropyl)azetidin-3-yl)acetonitrile]"
,,,−92%,0.17 nM,"C[C@@H]1Cc2c([nH]c3ccccc23)[C@@H](c2c(F)cc(C(O)C3CN(CCC(F)F)C3)cc2F)N1CC(F)(F)CO (stereo partly drawn) [Compound 153, 3-((1R,3R)-1-(4-((1-(3,3-difluoropropyl)azetidin-3-yl)(hydroxy)methyl)-2,6-difluorophenyl)-3-methyl-3,4-dihydro-1H-pyrido[3,4-b]indol-2(9H)-yl)-2,2-difluoropropan-1-ol]"
,,,−98%,0.058 nM,"C[C@@H]1Cc2c([nH]c3ccccc23)[C@@H](c2c(F)cc([C@@](C)(O)C3CN(CCCF)C3)cc2F)N1CC(F)(F)CO [Compound 154, 3-((1R,3R)-1-(2,6-difluoro-4-((S)-1-(1-(3-fluoropropyl)azetidin-3-yl)-1-hydroxyethyl)phenyl)-3-methyl-3,4-dihydro-1H-pyrido[3,4-b]indol-2(9H)-yl)-2,2-difluoropropan-1-ol]"
